Data published in ChEMBL document CHEMBL1201862, “PubChem BioAssay data set” (2004).
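Cells were grown in 96-well plates and exposed to each compound for 48 hours at five concentrations; endpoints were interpolated linearly between bracketing concentrations, or set to the highest concentration if not reached. GI50 marks 50% less growth.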 Active and inactive are the calls of the source. No stated cut-off is given here; in the data, active = GI50 up to about 1.1 µM and inactive = higher.

Assays:
Assay in all cases: inhibition of tumour cell growth, NCI panel, 48 h
SNB-19 = system: SNB-19
CAKI-1 = system: CAKI-1
CCRF-CEM = system: CCRF-CEM
PC-3 = system: PC-3
HOP-92 = system: HOP-92
HCT-15 = system: HCT-15
MDA-N = system: MDA-N
Hs-578T = system: Hs-578T
BT-549 = system: BT-549
MOLT-4 = system: MOLT-4
SK-MEL-28 = system: SK-MEL-28
NCI-H460 = system: NCI-H460
NCI/ADR-RES = system: NCI/ADR-RES
OVCAR-3 = system: OVCAR-3
K562 = system: K562
SK-MEL-5 = system: SK-MEL-5
SW-620 = system: SW-620
MDA-MB-435 = system: MDA-MB-435
HL-60 = system: HL-60
HOP-62 = system: HOP-62
NCI-H226 = system: NCI-H226
SK-OV-3 = system: SK-OV-3
TK-10 = system: TK-10
RPMI-8226 = system: RPMI-8226
SNB-75 = system: SNB-75
A549 = system: A549
786-0 = system: 786-0
HCT-116 = system: HCT-116
HT-29 = system: HT-29
UACC-62 = system: UACC-62
SF-295 = system: SF-295
SK-MEL-2 = system: SK-MEL-2
MDA-MB-231 = system: MDA-MB-231
SF-268 = system: SF-268
UACC-257 = system: UACC-257
ACHN = system: ACHN
NCI-H23 = system: NCI-H23
T47D = system: T47D
SN12C = system: SN12C
KM12 = system: KM12
COLO 205 = system: COLO 205
UO-31 = system: UO-31
LOX IMVI = system: LOX IMVI
HCC 2998 = system: HCC 2998
U-251 = system: U-251
SR = system: SR
OVCAR-4 = system: OVCAR-4
DU-145 = system: DU-145
A498 = system: A498
OVCAR-8 = system: OVCAR-8
NCI-H522 = system: NCI-H522
OVCAR-5 = system: OVCAR-5
IGROV-1 = system: IGROV-1
Malme-3M = system: Malme-3M
MCF7 = system: MCF7
SF-539 = system: SF-539
RXF 393 = system: RXF 393
M14 = system: M14
EKVX = system: EKVX

Measured: GI50

OC1(c2ccc(-c3ccccc3)cc2)c2ccccc2C2=NCCN21 (stereo unspecified)
39.9 µM: HCT-15
inactive: SNB-19 15.4 µM | CAKI-1 50.6 µM | CCRF-CEM 39.9 µM | PC-3 11.9 µM | HOP-92 50.4 µM | MDA-N > 100 µM | Hs-578T 22.4 µM | BT-549 > 100 µM | MOLT-4 27.1 µM | SK-MEL-28 21.7 µM | NCI-H460 45.8 µM | NCI/ADR-RES 29.2 µM | OVCAR-3 19 µM | K562 70.5 µM | SK-MEL-5 19.8 µM | SW-620 45.4 µM | MDA-MB-435 32.2 µM | HL-60 33.7 µM | HOP-62 16.6 µM | NCI-H226 18.3 µM | SK-OV-3 86.3 µM | TK-10 > 100 µM | RPMI-8226 29 µM | SNB-75 19.3 µM | A549 84.9 µM | 786-0 16 µM | HCT-116 30.3 µM | HT-29 21.4 µM | UACC-62 20.4 µM | SF-295 52.2 µM | SK-MEL-2 3.61 µM | MDA-MB-231 56.1 µM | SF-268 29.6 µM | UACC-257 36.1 µM | ACHN 20.6 µM | NCI-H23 20.1 µM | T47D 86.9 µM | SN12C > 100 µM | KM12 22.9 µM | COLO 205 21.4 µM | UO-31 30.6 µM | LOX IMVI 34.8 µM | HCC 2998 19.1 µM | U-251 37.7 µM | SR 33.8 µM | OVCAR-4 56.8 µM | DU-145 > 100 µM | A498 31.6 µM

CC(C)C(C)C(O)C(O)C(C)C1CCC2C3COC(=O)C4CC(O)C(O)CC4(C)C3CCC12C (stereo unspecified)
66.1 µM: HCT-15
inactive: SNB-19 28.1 µM | OVCAR-8 62.8 µM | CAKI-1 11.7 µM | CCRF-CEM 22.8 µM | PC-3 46.9 µM | HOP-92 32.8 µM | MDA-N 56 µM | Hs-578T 78.7 µM | BT-549 88.3 µM | MOLT-4 27.1 µM | SK-MEL-28 > 100 µM | NCI-H460 57.9 µM | NCI/ADR-RES > 100 µM | K562 39 µM | SK-MEL-5 35 µM | SW-620 > 100 µM | NCI-H522 55.2 µM | MDA-MB-435 > 100 µM | HL-60 > 10 µM | OVCAR-5 > 100 µM | IGROV-1 > 100 µM | Malme-3M > 100 µM | NCI-H226 23.2 µM | SK-OV-3 > 100 µM | MCF7 56.4 µM | SF-539 > 100 µM | TK-10 > 100 µM | A549 48.9 µM | 786-0 > 100 µM | HCT-116 > 100 µM | HT-29 35.9 µM | UACC-62 > 100 µM | SF-295 78.5 µM | SK-MEL-2 > 100 µM | MDA-MB-231 > 100 µM | SF-268 79.3 µM | UACC-257 > 100 µM | ACHN 25.4 µM | NCI-H23 92.7 µM | RXF 393 20.2 µM | T47D 40.9 µM | M14 > 100 µM | SN12C 33.7 µM | KM12 50.2 µM | COLO 205 94 µM | UO-31 58.1 µM | LOX IMVI > 100 µM | HCC 2998 > 100 µM | U-251 62.5 µM | OVCAR-4 59 µM | EKVX 43.7 µM | DU-145 > 100 µM | A498 > 100 µM

Cc1nn2c(C(=O)N/N=C/c3ccccc3O)c(C)nc2s1
41.9 µM: HCT-15
inactive: SNB-19 > 100 µM | OVCAR-8 > 100 µM | CAKI-1 > 100 µM | CCRF-CEM 41.2 µM | HOP-92 > 100 µM | MDA-N > 100 µM | Hs-578T > 100 µM | BT-549 > 100 µM | MOLT-4 51.9 µM | SK-MEL-28 > 100 µM | NCI-H460 49.7 µM | NCI/ADR-RES 61.4 µM | OVCAR-3 3.09 µM | K562 > 100 µM | SK-MEL-5 60.3 µM | SW-620 > 100 µM | NCI-H522 > 100 µM | MDA-MB-435 > 100 µM | HL-60 31.8 µM | OVCAR-5 > 100 µM | IGROV-1 > 100 µM | Malme-3M > 100 µM | HOP-62 > 100 µM | NCI-H226 89.3 µM | MCF7 30.8 µM | SF-539 > 100 µM | TK-10 > 100 µM | SNB-75 > 100 µM | A549 > 100 µM | 786-0 47.8 µM | HCT-116 51.6 µM | HT-29 > 100 µM | UACC-62 > 100 µM | SF-295 85.9 µM | MDA-MB-231 > 100 µM | SF-268 > 100 µM | UACC-257 > 100 µM | ACHN 56.1 µM | NCI-H23 > 100 µM | RXF 393 > 100 µM | T47D 61.5 µM | M14 53 µM | SN12C 73.1 µM | KM12 > 100 µM | COLO 205 59.2 µM | UO-31 > 100 µM | LOX IMVI > 100 µM | HCC 2998 55.1 µM | U-251 38 µM | OVCAR-4 > 100 µM | EKVX > 100 µM | DU-145 > 100 µM | A498 61.5 µM

CC1S/C(=N/c2nnc(-c3ccccc3)o2)NC1=O (stereo unspecified)
30.4 µM: HCT-15
inactive: SNB-19 55.6 µM | OVCAR-8 43.6 µM | CAKI-1 > 100 µM | CCRF-CEM 14.5 µM | PC-3 38.5 µM | HOP-92 > 100 µM | MDA-N 32.7 µM | Hs-578T > 100 µM | BT-549 71.4 µM | MOLT-4 30.5 µM | SK-MEL-28 74.6 µM | NCI/ADR-RES 36.6 µM | OVCAR-3 18.5 µM | K562 48 µM | SK-MEL-5 35.9 µM | SW-620 46 µM | NCI-H522 28 µM | MDA-MB-435 39.1 µM | HL-60 36.7 µM | OVCAR-5 > 100 µM | IGROV-1 43.9 µM | Malme-3M 41.4 µM | HOP-62 26.7 µM | NCI-H226 > 100 µM | MCF7 44 µM | SF-539 30.2 µM | TK-10 58.7 µM | RPMI-8226 49 µM | A549 37.6 µM | 786-0 28.3 µM | HCT-116 17.7 µM | HT-29 27.7 µM | UACC-62 52.6 µM | SF-295 18.3 µM | SK-MEL-2 69.5 µM | MDA-MB-231 43.3 µM | SF-268 34.5 µM | UACC-257 53.8 µM | ACHN 46.5 µM | NCI-H23 94.8 µM | RXF 393 61.7 µM | T47D 61.1 µM | M14 21.5 µM | SN12C 36.1 µM | KM12 46.1 µM | COLO 205 47.1 µM | UO-31 30.2 µM | LOX IMVI 35.5 µM | U-251 26.6 µM | OVCAR-4 31.2 µM | EKVX 27 µM | DU-145 81.3 µM | A498 > 100 µM

Oc1ccc2c(c1)OCC1c3ccccc3OC21 (stereo unspecified)
inactive: SNB-19 40.6 µM | OVCAR-8 48.3 µM | CAKI-1 46.3 µM | CCRF-CEM 30.3 µM | PC-3 56.8 µM | HOP-92 > 100 µM | MDA-N 35.6 µM | Hs-578T 47.5 µM | BT-549 55.2 µM | MOLT-4 19.6 µM | SK-MEL-28 > 100 µM | NCI-H460 41.6 µM | NCI/ADR-RES 37.8 µM | OVCAR-3 59 µM | K562 41.2 µM | SK-MEL-5 38.5 µM | SW-620 63.5 µM | MDA-MB-435 33.8 µM | HL-60 28.8 µM | OVCAR-5 > 100 µM | IGROV-1 51.9 µM | HOP-62 > 100 µM | NCI-H226 > 100 µM | SK-OV-3 > 100 µM | MCF7 86.5 µM | SF-539 > 100 µM | TK-10 87.7 µM | RPMI-8226 45.7 µM | SNB-75 45.2 µM | 786-0 > 100 µM | HCT-116 91.2 µM | HT-29 37.9 µM | UACC-62 61.5 µM | SF-295 50.6 µM | SK-MEL-2 60.5 µM | MDA-MB-231 78 µM | SF-268 25.4 µM | UACC-257 86.9 µM | ACHN 39.8 µM | NCI-H23 44.9 µM | RXF 393 94.2 µM | T47D > 100 µM | M14 74 µM | SN12C 51.6 µM | KM12 45.4 µM | COLO 205 > 100 µM | UO-31 52.8 µM | LOX IMVI 32.3 µM | HCC 2998 27.8 µM | U-251 42.6 µM | OVCAR-4 60.8 µM | EKVX 27.9 µM | DU-145 > 100 µM | A498 > 100 µM
82.6 µM: HCT-15
